Experimental data as given in patent US20220144842A1, “IRAK INHIBITORS, PREPARATION METHOD AND MEDICINAL USES THEREOF” (Eternity Bioscience Inc., priority 2020, published 2022).
Read-outs that look alike come from different tables or passages of the source.

Tests used:
IRAK4 = target: T1, IRAK4 (Homo sapiens, UniProt Q9NWZ3); assay: IRAK4 Human PBMC TNFα Cell Based Assay (AlphaLISA); details: TNFα in culture medium
T1 construct: host or cells: human PBMCs
T1 sequence (Q9NWZ3 1-460): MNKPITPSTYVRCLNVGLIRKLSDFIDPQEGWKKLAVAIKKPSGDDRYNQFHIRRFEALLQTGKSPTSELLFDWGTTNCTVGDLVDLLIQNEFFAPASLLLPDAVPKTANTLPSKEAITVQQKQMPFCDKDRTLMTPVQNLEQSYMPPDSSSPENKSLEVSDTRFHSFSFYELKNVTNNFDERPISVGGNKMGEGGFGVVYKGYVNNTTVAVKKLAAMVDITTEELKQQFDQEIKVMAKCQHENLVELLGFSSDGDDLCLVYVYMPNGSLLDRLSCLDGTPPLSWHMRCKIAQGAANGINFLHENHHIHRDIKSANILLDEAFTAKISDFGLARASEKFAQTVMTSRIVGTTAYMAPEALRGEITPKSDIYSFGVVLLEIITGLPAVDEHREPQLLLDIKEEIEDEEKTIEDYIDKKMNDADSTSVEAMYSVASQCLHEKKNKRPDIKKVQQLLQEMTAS
Method: In this assay, serially diluted compounds were incubated with 1×10^4 human peripheral blood mononuclear cells (PBMCs) from STEMCELL (Cat #70025.1) per well of 384-well plate (Fisher Scientific; 50-905-2761) and cultured with TexMACS medium (Miltenyi, Cat #130-097-196), stimulated by R848 (0.5 μM) or IL-1β (10 ng/ml). Plates were covered with lids and incubated for 4 h (R848, Fisher Scientific, Cat #NC9801605) or 24 h (IL-1β, Fisher Scientific, Cat #ENRIL1BI) at 37° C. in a humidified tissue-culture incubator. After a brief centrifugation at 1000 rpm for 5 minutes, 5 μl of culture medium was used for the measurement of the TNFα amount using TNFα (human) AlphaLISA Detection Kit (PerkinElmer, Cat #AL208C) according to manufacturer's protocol. A biotinylated anti-TNFα antibody binds to the Streptavidin-coated Donor beads while another anti-TNFα antibody is conjugated to AlphaLISA Acceptor beads. In the presence of the TNFα, the beads come into close proximity. The excitation of the Donor beads causes the release of singlet oxygen molecules that triggers a cascade of energy transfer in the Acceptor beads, resulting in a sharp peak of light emission at 615 nm. AlphaLISA assay plates were read using PHERAstar. Percentage of inhibition was calculated as below:
(§1) % inhibition=(1−(Reading(Sample)−Reading(Negative Control))/(Reading(Positive Control)−Reading(Negative Control)))×100%
The 0% inhibition value comes from the Reading of Positive Control wells having 0 nM compound. The 100% inhibition value comes from the Reading of Negative Control wells having no R848 or IL-1β.

[1] = target: T2, full length human IRAK4 protein (Homo sapiens, UniProt Q9NWZ3); assay: IRAK4 Biochemical Assay (Promega ADP-Glo IRAK4 Kinase Enzyme System); details: 3 nM enzyme, 2 μM MBP, 250 μM ATP, 60 min at room temperature, ADP-Glo luminescence
T2 construct: Purified full length human IRAK4 protein; purchased Signal Chem 112-10G-125
T2 sequence (Q9NWZ3 1-460): T1 sequence (Q9NWZ3 1-460)
Method: For the routine compound screening, an IRAK4 kinase assay was performed as follows using Promega ADP-Glo IRAK4 Kinase Enzyme System (Promega, Cat #2198-AD). Purified full length human IRAK4 protein (Signal Chem; Cat #112-10G-125) was diluted to a concentration 6 nM in assay buffer (25 mM MOPS, pH 7.2, 12.5 mM β-glycerol-phosphate, 25 mM MgCl2, 5 mM EGTA, 2 mM EDTA, 0.0025% Brij-35, add 0.25 mM DTT to Kinase Assay Buffer prior to use) containing IRAK4 inhibitor at 2× the final concentration in 0.4% DMSO. The reaction was performed in PerkinElmer Proxiplate-384 plus white plate (Fisher Scientific, Cat #50-905-2761) and started by the addition of an equal volume of the assay buffer containing 4 μM native swine myelin basic protein (MBP) and 500 μM ATP to achieve a final concentration of 3 nM enzyme, 2 μM MBP, 250 μM ATP, 1× compound, and 0.2% DMSO. The kinase reaction was allowed to run for 60 min at room temperature (25-27° C.), then 5 μL of ADP-Glo was added to the reaction in each well followed by 40 minutes-incubation at RT. To detect converted ATP, 10 μL Detection Buffer was added into each well and Incubate at RT in dark for 30 minutes. Finally, luminescence was read using Tecan with 1000 ms of integration time. The luminescent signal positively correlates with ADP amount and kinase activity. Data was analyzed by GraphPad Prism and IC50 was calculated using function log(inhibitor) vs. response—Variable slope (four parameters). Percentage of inhibition was calculated as below.
as §1
The 0% inhibition value comes from the Reading of Positive Control wells having 0 nM compound. The 100% inhibition value comes from the Reading of Negative Control wells having no IRAK4 kinase.

[2] = human PBMCs stimulated by IL-1β (10 ng/ml), 24 h, read-out: IRAK4 PBMC AlphaLISA IL-1β (IC50)
[3] = human PBMCs stimulated by R848 (0.5 μM), 4 h, read-out: IRAK4 PBMC AlphaLISA R848 (IC50)

IC50 (IRAK4; [2]) [nM] | IC50 (IRAK4; [3]) [nM] | IC50 [1] [nM] | IRAK4 Biochemical Assay Max Inhibition (%) [1] [%] | Compound
16 | 35 | 4.2 | 100 | Brc1n[nH]c2nc(Nc3cnn(C4CCOCC4)c3)nc(N[C@H]3CC[C@H](N4CCOCC4)CC3)c12 [Example 1, 3-bromo-N^4-((1r,4r)-4-morpholinocyclohexyl)-N^6-(1-(tetrahydro-2H-pyran-4-yl)-1H-pyrazol-4-yl)-1H-pyrazolo[3,4-d]pyrimidine-4,6-diamine]
25 | 24 | 8.2 | 100 | c1cncc(-c2n[nH]c3nc(Nc4cnn(C5CCOCC5)c4)nc(N[C@H]4CC[C@H](N5CCOCC5)CC4)c23)c1 [Example 2, N^4-((1r,4r)-4-morpholinocyclohexyl)-3-(pyridin-3-yl)-N^6-(1-(tetrahydro-2H-pyran-4-yl)-1H-pyrazol-4-yl)-1H-pyrazolo[3,4-d]pyrimidine-4,6-diamine]
 |  | 12 | 109 | c1nn(C2CCOCC2)cc1Nc1nc(N[C@H]2CC[C@H](N3CCOCC3)CC2)c2c(-c3cn[nH]c3)n[nH]c2n1 [Example 3, N^4-((1r,4r)-4-morpholinocyclohexyl)-3-(1H-pyrazol-4-yl)-N^6-(1-(tetrahydro-2H-pyran-4-yl)-1H-pyrazol-4-yl)-1H-pyrazolo[3,4-d]pyrimidine-4,6-diamine]
56 | 63 | 16 | 100 | c1ccc(-c2n[nH]c3nc(Nc4cnn(C5CCOCC5)c4)nc(N[C@H]4CC[C@H](N5CCOCC5)CC4)c23)cc1 [Example 5, N^4-((1r,4r)-4-morpholinocyclohexyl)-3-phenyl-N^6-(1-(tetrahydro-2H-pyran-4-yl)-1H-pyrazol-4-yl)-1H-pyrazolo[3,4-d]pyrimidine-4,6-diamine]
0.9 | 1.6 | 12 | 100 | Cc1cc(Nc2nc(N[C@H]3CC[C@H](N4CCOCC4)CC3)c3cn[nH]c3n2)sn1 [Example 6, N^6-(3-methylisothiazol-5-yl)-N^4-((1r,4r)-4-morpholinocyclohexyl)-1H-pyrazolo[3,4-d]pyrimidine-4,6-diamine]
